Legend:
Assay in all cases: relative viability (nuclei count vs DMSO), 5 days (fraction); higher = more cells survive
[1] = compound: CCn1c(-c2nonc2N)nc2cnc(Oc3cccc(NC(=O)c4ccc(OCCN5CCOCC5)cc4)c3)cc21 + O=C(c1cc(Cc2n[nH]c(=O)c3ccccc23)ccc1F)N1CCN(C(=O)C2CC2)CC1 [Olaparib] (partner 8 µM)
Method in brief: (§1)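 Lung cancer cell lines were pin-tool dosed in 1536-well plates on the day after seeding, with either a lone drug or a fixed anchor-drug dose plus five library-drug doses (not always all listed) in √10 steps. Nuclei were counted on 4× images after 5 days. Relative viability is the ratio of treated-well to vehicle-well nuclei counts, with each value a median of duplicate plates.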

[2] = compound: CCn1c(-c2nonc2N)nc2cnc(Oc3cccc(NC(=O)c4ccc(OCCN5CCOCC5)cc4)c3)cc21 + CC(=O)Nc1cccc(-n2c(=O)n(C3CC3)c(=O)c3c(Nc4ccc(I)cc4F)n(C)c(=O)c(C)c32)c1 [Trametinib] (partner 0.02 µM)
Method in brief: as §1

Mirin + Lapatinib = compound: N=C1NC(=O)/C(=C/c2ccc(O)cc2)S1 [Mirin] + CS(=O)(=O)CCNCc1ccc(-c2ccc3ncnc(Nc4ccc(OCc5cccc(F)c5)c(Cl)c4)c3c2)o1 [Lapatinib] (partner 2 µM)
Method in brief: as §1

[3] = compound: CCC1=CN=CN=C1N2CCN(CC2)CC3=NC4=C(N3)C=C(C=C4)C(F)(F)F + Cc1nc(NC(=O)N2CCC[C@H]2C(N)=O)sc1-c1ccnc(C(C)(C)C(F)(F)F)c1 [Alpelisib] (partner 2 µM)
Method in brief: as §1

Cell Line | relative viability ([1]; first compound 0.04 µM) | relative viability ([1]; first compound 0.1265 µM) | relative viability ([1]; first compound 0.4 µM) | relative viability ([1]; first compound 1.265 µM) | relative viability ([1]; first compound 4 µM) | relative viability ([2]; first compound 0.04 µM) | relative viability ([2]; first compound 0.1265 µM) | relative viability ([2]; first compound 0.4 µM) | relative viability ([2]; first compound 1.265 µM) | relative viability ([2]; first compound 4 µM) | relative viability (Mirin + Lapatinib; first compound 0.25 µM) | relative viability (Mirin + Lapatinib; first compound 0.7906 µM) | relative viability (Mirin + Lapatinib; first compound 2.5 µM) | relative viability (Mirin + Lapatinib; first compound 7.906 µM) | relative viability (Mirin + Lapatinib; first compound 25 µM) | relative viability ([3]; first compound 0.04 µM) | relative viability ([3]; first compound 0.1265 µM) | relative viability ([3]; first compound 0.4 µM) | relative viability ([3]; first compound 1.265 µM) | relative viability ([3]; first compound 4 µM)
201T | 0.859 | 0.933 | 0.817 | 0.812 | 0.769 | 0.719 | 0.706 | 0.749 | 0.697 | 0.698 | 0.98 | 0.964 | 1.01 | 1.09 | 1.08 | 1 | 0.988 | 0.995 | 0.902 | 1.06
A549 | 0.499 | 0.343 | 0.122 | 0.0557 | 0.102 | – | – | – | – | – | 0.914 | 1.15 | 1.04 | 1.08 | 0.598 | 0.763 | 0.657 | 0.849 | 0.698 | 0.831
A-427 | 0.704 | 0.685 | 0.601 | 0.198 | 0.264 | 0.879 | 0.839 | 0.727 | 0.381 | 0.373 | 1.12 | – | 1.17 | 1.05 | 1.08 | 1.08 | 1.08 | 0.99 | 0.986 | 0.791
ABC-1 | 0.632 | 0.589 | 0.74 | 0.386 | 0.458 | – | – | – | – | – | 1.04 | 1.33 | 1.17 | 1.16 | 0.95 | 0.987 | 1 | 1.08 | 0.942 | 0.971
BEN | 1.29 | 0.894 | 0.714 | 0.368 | 0.415 | 0.955 | 0.972 | 0.702 | 0.518 | 0.521 | 0.507 | 0.942 | 0.721 | 0.656 | 0.457 | 0.961 | 0.965 | 0.898 | 0.574 | 0.583
CAL-12T | 0.825 | 0.795 | 0.73 | 0.635 | 0.539 | 0.354 | 0.363 | 0.372 | 0.346 | 0.345 | 0.702 | – | 0.92 | – | 0.238 | 1.25 | 1.16 | 1.06 | 1.32 | 1.09
COR-L23 | 0.346 | 0.301 | 0.269 | 0.145 | 0.124 | 0.647 | 0.517 | 0.248 | 0.192 | 0.16 | 0.796 | 1.08 | 0.907 | 0.999 | 0.914 | 0.899 | 0.721 | 0.886 | 0.702 | 0.783
COR-L 105 | 0.631 | 0.617 | 0.699 | 0.554 | 0.457 | 0.343 | 0.42 | 0.365 | 0.319 | 0.376 | 0.346 | 0.274 | 0.392 | 0.367 | 0.306 | 1.07 | 0.847 | 0.966 | 0.893 | 0.894
Calu-6 | 0.569 | 0.528 | 0.541 | 0.381 | 0.328 | – | – | – | – | – | 1.11 | 1.12 | 1.06 | 1.01 | 0.983 | 0.891 | 0.923 | 0.86 | 0.822 | 0.86
ChaGo-K-1 | 0.512 | 0.443 | 0.443 | 0.399 | 0.387 | 1.06 | 0.928 | 0.844 | 0.89 | 0.866 | – | – | – | – | – | – | – | – | – | –
EBC-1 | 0.777 | 0.716 | 0.637 | 0.492 | 0.535 | – | – | – | – | – | 0.203 | 0.208 | 0.219 | 0.201 | 0.221 | 0.962 | 0.769 | 0.796 | 0.697 | 1.03
EKVX | 1.18 | 0.856 | 0.802 | 0.635 | 0.79 | 0.411 | 0.389 | 0.404 | 0.371 | 0.415 | 0.213 | 0.192 | 0.23 | 0.215 | 0.256 | 0.875 | 0.828 | 0.762 | 0.699 | 0.866
EMC-BAC-2 | 0.474 | 0.42 | 0.38 | 0.27 | 0.292 | 0.905 | 0.922 | 0.826 | 0.401 | 0.445 | 0.955 | 0.902 | 0.954 | 0.918 | 0.88 | 0.748 | 0.697 | 0.726 | 0.723 | 0.774
EPLC-272H | 1.09 | 0.928 | 0.827 | 0.449 | 0.365 | 0.365 | 0.347 | 0.256 | 0.213 | 0.197 | 0.9 | – | 0.886 | 0.83 | 0.664 | 0.795 | 0.85 | 0.813 | 0.979 | 0.981
H3255 | 0.532 | 0.542 | 0.501 | 0.364 | 0.383 | 0.671 | 0.676 | 0.577 | 0.442 | 0.579 | 0.25 | 0.307 | 0.236 | 0.241 | 0.218 | 0.742 | 0.721 | 0.711 | 0.67 | 0.65
HARA | 0.607 | 0.965 | 0.654 | 0.294 | 0.139 | 0.494 | 0.874 | 0.687 | 0.333 | 0.254 | 0.836 | 0.747 | 0.742 | 0.652 | 0.665 | 0.858 | 0.744 | 0.816 | 0.651 | 0.812

Cell Line | relative viability ([1]; first compound 0.04 µM) | relative viability ([1]; first compound 0.1265 µM) | relative viability ([1]; first compound 0.4 µM) | relative viability ([1]; first compound 1.265 µM) | relative viability ([1]; first compound 4 µM) | relative viability ([2]; first compound 0.04 µM) | relative viability ([2]; first compound 0.1265 µM) | relative viability ([2]; first compound 0.4 µM) | relative viability ([2]; first compound 1.265 µM) | relative viability ([2]; first compound 4 µM) | relative viability (Mirin + Lapatinib; first compound 0.25 µM) | relative viability (Mirin + Lapatinib; first compound 0.7906 µM) | relative viability (Mirin + Lapatinib; first compound 2.5 µM) | relative viability (Mirin + Lapatinib; first compound 7.906 µM) | relative viability (Mirin + Lapatinib; first compound 25 µM) | relative viability ([3]; first compound 0.04 µM) | relative viability ([3]; first compound 0.1265 µM) | relative viability ([3]; first compound 0.4 µM) | relative viability ([3]; first compound 1.265 µM) | relative viability ([3]; first compound 4 µM)
HCC-15 | 0.745 | 0.737 | 0.766 | 0.581 | 0.542 | 0.38 | 0.36 | 0.348 | 0.39 | 0.378 | 0.874 | 0.546 | 0.9 | 0.803 | 0.79 | 0.954 | 0.877 | 0.925 | 0.892 | 0.889
HCC-44 | 1.07 | 0.996 | 0.945 | 0.999 | 0.802 | 1.06 | 1.12 | 1.04 | 1.05 | 1.03 | 1.07 | 1.12 | 1.05 | 1.04 | 1.28 | 0.789 | 0.746 | 0.815 | 0.743 | 0.713
HCC-78 | 0.789 | 0.97 | – | 0.832 | 0.946 | 0.796 | 0.469 | – | 0.847 | 1.06 | 0.921 | 0.761 | 0.837 | 0.774 | 0.552 | 0.188 | 0.348 | 0.333 | 0.4 | 0.279
HCC-366 | 0.334 | 0.303 | 0.416 | 0.0675 | 0.0475 | 0.335 | 0.334 | 0.322 | 0.0755 | 0.0555 | 1.06 | 0.957 | 1.07 | 0.986 | 0.752 | 0.563 | 0.385 | 0.335 | – | 0.395
HCC-827 | 0.686 | 0.693 | 0.698 | 0.501 | 0.509 | 0.586 | 0.662 | 0.683 | 0.573 | 0.689 | 0.167 | 0.182 | 0.17 | 0.2 | 0.227 | 1 | 0.926 | 0.969 | 0.988 | 0.956
IA-LM | 0.967 | 0.834 | 0.791 | 0.796 | 0.765 | – | – | – | – | – | 0.676 | 0.851 | 1.09 | 0.431 | 0.608 | 0.805 | 0.752 | 0.668 | 0.766 | 0.748
LCLC-103H | 0.908 | 0.816 | 0.712 | 0.717 | 0.715 | 0.651 | 0.737 | 0.655 | 0.638 | 0.639 | – | – | – | – | – | 0.901 | 1.05 | 0.952 | 0.932 | 1.15
NCI-H441 | 0.74 | 0.589 | 0.454 | 0.439 | 0.394 | 0.466 | 0.43 | 0.289 | 0.38 | 0.477 | – | – | – | – | – | 0.662 | 0.629 | 0.762 | 0.753 | 0.612
NCI-H522 | 0.661 | 0.614 | 0.665 | 0.514 | 0.554 | 0.739 | 0.705 | 0.652 | 0.629 | 0.751 | – | – | – | – | – | – | – | – | – | –
NCI-H1299 | 0.975 | 0.958 | 0.867 | 0.712 | 0.52 | – | – | – | – | – | 0.984 | 0.973 | 0.977 | 1.01 | 1.12 | 1.09 | 1.07 | 1.04 | 1.03 | 1.04
NCI-H1563 | – | – | – | – | – | – | – | – | – | – | 1.05 | 1.09 | 1.09 | 0.867 | 0.853 | 0.887 | 0.92 | 1 | 0.986 | 0.954
NCI-H1648 | 0.604 | 0.577 | 1.35 | 1.26 | 1.5 | 0.511 | 0.431 | 0.576 | 0.779 | 0.705 | – | – | – | – | – | – | – | – | – | –
NCI-H1650 | 0.74 | 0.849 | 0.744 | 0.696 | 0.715 | 0.668 | 0.543 | 0.52 | 0.37 | 0.496 | 0.774 | 0.501 | 0.891 | 0.708 | 0.465 | – | – | – | – | –
NCI-H1703 | 0.469 | 0.452 | 0.675 | 0.333 | 0.303 | – | – | – | – | – | 1.11 | 1.23 | 1.29 | 0.768 | 0.826 | 0.462 | 0.401 | 0.358 | 0.25 | 0.535
NCI-H2342 | 0.439 | 0.508 | 0.469 | 0.368 | 0.361 | 0.803 | 0.85 | 0.989 | 0.621 | 0.801 | – | – | – | – | – | – | – | – | – | –
SW 900 | 0.899 | 0.924 | 1.13 | 0.826 | 0.694 | 0.602 | 0.802 | 0.828 | 0.918 | 0.849 | – | – | – | – | – | – | – | – | – | –
